# Experimental data reported in patent US20220409696A1, “Heparin-Associated Polypeptides and Uses Thereof” (Juvena Therapeutics, Inc., priority 2021, published 2022).
# Assays:
# DM1 human myoblast cells = assay: Fusion (% eMyHC area) of DM1 human myoblast; type: cell-based; conditions: 96 h for fusion
# Experimental: FIG. 7A Bar graph of % EdU+ human myoblast (person) and FIG. 7B % area MyHC in response to IGF2. Myoblast were cultured 72 h for proliferation and 96 h for fusion in the presence of indicated factor. Mean∓S.D. Mean∓SD. Significant p-values (EdU: Vehicle˜IGF2: 6.8E-3, % eMyHC Area: Vehicle˜IGF2: 1.9E-4) (*p<0.05 by Students Two-Tailed T-test, n=3−6).
# IGF2 was tested individually for its ability to promote proliferation and/or fusion of human muscle progenitor cells from an individual with myotonic dystrophy type 1 (hMD)—a muscular dystrophy caused by mutations in the DMPK1 gene. […] After 72 or 96 hours, cells were pulsed for 2-5 hours with EdU (30 uM), ethanol fixed, stained with Hoescht 3342, immunostained for proliferation—as measured by the percent of cells staining positive for EdU (% EdU)-, and immunostained for differentiation—as measured by the increase in cellular area staining positive for embryonic myosin heavy chain (% eMyHC) relative to the negative controls, which received media and vehicle only. Wells were imaged on a Keyence BZ-100 at 4×, the images quantified in Cell Profiler, and the statistics were computed in R. Additionally, RNA was extracted from myoblast and select transcript abundances quantified by qPCR. […]
# [1] = target: Insulin Degrading Enzyme (IDE) (Homo sapiens, UniProt P14735); conditions: Malito et al. Cell Mol Life Sci. 2008; read-out: affinity of IDE for IGF2 as a substrate; cited from earlier work
# [2] = Backbone cleavage on expression from CHO cells (reducing SDS-PAGE, Western blot)
# Experimental: The amino acid backbone of IGF2 is cleaved when expressed from Chinese Hamster Ovary (CHO) cells (FIG. 13A) as visualized on a reducing SDS-PAGE and Western blot (FIG. 13B). The CHO cells were grown in a 37° C. incubator with a humidified atmosphere of 8% CO2 on an orbital shaker platform with a shaking speed 125 rpm to reach 4E6 cells/mL, followed by transferring the calculated volume of cells to fresh, pre-warmed ExpiCHO™ Expression Medium in a shake flask. Incubated flasks in a 37° C. incubator with a humidified atmosphere of 8% CO2 shook on an orbital shaker platform until cultures reached a density of 4×106-6×10^6 viable cells/mL. After mixing each plasmid with 100 ul SFM in a microtube; ExpiFectamine (8 ul×10.5=84 ul) with OptiPro medium (92 ul×10.5=966 ul) in a microtube; adding 100 ul into the plasmid tube and mix by pipetting; After 5 min, add 200 ul into each well and swirl to mix. mix enhancer (15×10.2=153 ul) with feed (600×10.2=6.12 ml), add 615 ul into each well. Culture supernatant collected at intervals was spun down at low speed and high speed, then frozen at −80 deg. Aliquots were analyzed for protein concentration by nanodrop, and then an equivalent amount loaded onto 4-12% SDS-PAGE gels for molecular weight distribution analysis. […]
# human myoblast cells = assay: Human myoblast differentiation (% eMyHC area), IGF2 and/or sodium butyrate; type: cell-based; conditions: IGF2 0.015 ug/mL, 96 h (FIG. 3B/3C)
# Experimental: Human myoblast cells were treated with either PBS (vehicle), IGF2 (15 ng/mL), sodium butyrate, or IGF2 and sodium butyrate. Fresh media was added every 24 hours. After 96 hours, cells were pulsed for 2-5 hours with EdU (30 uM), ethanol fixed, stained with Hoescht 3342, immunostained for proliferation—as measured by the percent of cells staining positive for EdU (% EdU)-, and immunostained for differentiation—as measured by the increase in cellular area staining positive for embryonic myosin heavy chain (% eMyHC) relative to the negative controls, which received media and vehicle only. The total area of eMyHc positive cells was analyzed, and treated cells were compared to cells treated with the vehicle alone. […] Significance was determined by a p-value less than 0.05 by the one-way ANOVA Tukey Honest Significant Difference test.
# FIG. 3C Bar graph quantitation of % Area eMyHC+ human myoblast in response to indicated treatment compared to IGF2 (15 ng/mL). Myoblast were cultured 96 h in the presence of IGF2 at indicated dose. Fresh media and IGF2 was added every 24 h.
# Human myoblast cells were treated with either PBS (vehicle), IGF2 (15 ng/mL), sodium butyrate, or IGF2 and sodium butyrate. Fresh media was added every 24 hours. After 48 hours, cells were pulsed for 2-5 hours with EdU (30 uM), ethanol fixed, stained with Hoescht 3342, immunostained for proliferation […] as measured by the percent of cells staining positive for EdU (% EdU)-, and immunostained for differentiation—as measured by the increase in cellular area staining positive for embryonic myosin heavy chain (% eMyHC) relative to the negative controls, which received media and vehicle only.
# Significance was determined by a p-value less than 0.05 by the one-way ANOVA Tukey Honest Significant Difference test.
substance,measurement,setting,value
"IGF2: Human IGF2 polypeptide, amino acids 25 to 91 of SEQ ID NO. 32 (i.e. SEQ ID NO. 29)",% eMyHC area,DM1 human myoblast cells,5.49%
same,Kd,[1],~100 nM
same,cleavage of the amino acid backbone when expressed from CHO cells,[2],cleaved
same,% eMyHC,human myoblast cells,10.843%
